Like-named read-outs stand apart in the source and are kept apart here.
How the values were obtained:
Type in all cases: biochemical
[1] = molecular target: 320 wild-type protein kinases (Homo sapiens, UniProt P50613); conditions: singlicate
Source text: (§1) Table S4. Profiling of two compounds at two concentrations against 320 wild-type protein kinases; singlicate measurement; Residual activities (% of control).

[2] = molecular target: 320 wild-type protein kinases (Homo sapiens, UniProt Q9UPE1); conditions: kinase STK23, singlicate
Source text: as §1

[3] = molecular target: 320 wild-type protein kinases (Homo sapiens, UniProt Q86Z02); conditions: singlicate
Source text: as §1

[4] = molecular target: T1, 320 wild-type protein kinases (Homo sapiens, UniProt Q9UL54); conditions: kinase TAOK2, singlicate
T1 sequence (Q9UL54 1-1235): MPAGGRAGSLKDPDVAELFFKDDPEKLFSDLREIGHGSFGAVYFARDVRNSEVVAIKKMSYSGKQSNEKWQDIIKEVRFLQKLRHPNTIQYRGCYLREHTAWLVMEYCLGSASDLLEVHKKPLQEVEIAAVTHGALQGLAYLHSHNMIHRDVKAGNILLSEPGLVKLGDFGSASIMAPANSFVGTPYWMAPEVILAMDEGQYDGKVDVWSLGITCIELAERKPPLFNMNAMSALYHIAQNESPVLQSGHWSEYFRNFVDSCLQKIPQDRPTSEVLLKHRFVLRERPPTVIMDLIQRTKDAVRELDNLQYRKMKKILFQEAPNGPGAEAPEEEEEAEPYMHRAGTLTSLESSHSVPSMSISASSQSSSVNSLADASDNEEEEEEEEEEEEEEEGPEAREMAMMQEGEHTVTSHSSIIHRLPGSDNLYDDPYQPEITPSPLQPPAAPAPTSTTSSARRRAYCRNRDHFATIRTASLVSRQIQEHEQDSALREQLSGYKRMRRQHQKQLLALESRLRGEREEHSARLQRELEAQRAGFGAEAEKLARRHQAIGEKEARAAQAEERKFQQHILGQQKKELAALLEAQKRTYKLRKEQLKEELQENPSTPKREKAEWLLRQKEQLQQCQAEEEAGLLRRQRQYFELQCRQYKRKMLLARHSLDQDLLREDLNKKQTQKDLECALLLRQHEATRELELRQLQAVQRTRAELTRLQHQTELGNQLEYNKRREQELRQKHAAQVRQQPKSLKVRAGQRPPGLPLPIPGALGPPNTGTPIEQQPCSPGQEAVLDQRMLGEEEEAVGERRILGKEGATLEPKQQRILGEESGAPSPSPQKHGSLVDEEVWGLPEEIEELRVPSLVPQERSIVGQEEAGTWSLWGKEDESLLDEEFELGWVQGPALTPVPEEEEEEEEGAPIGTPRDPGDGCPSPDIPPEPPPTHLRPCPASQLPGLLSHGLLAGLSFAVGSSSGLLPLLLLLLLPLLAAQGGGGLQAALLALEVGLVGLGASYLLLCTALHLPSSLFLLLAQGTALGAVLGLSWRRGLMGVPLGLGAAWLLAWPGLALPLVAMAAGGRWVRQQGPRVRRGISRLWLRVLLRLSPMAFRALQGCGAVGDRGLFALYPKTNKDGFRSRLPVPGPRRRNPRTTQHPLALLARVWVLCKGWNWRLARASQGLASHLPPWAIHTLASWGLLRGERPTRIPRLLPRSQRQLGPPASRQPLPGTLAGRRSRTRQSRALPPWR
Source text: as §1

[5] = molecular target: T2, 320 wild-type protein kinases (Homo sapiens, UniProt Q04771); conditions: singlicate
T2 sequence (Q04771 21-509): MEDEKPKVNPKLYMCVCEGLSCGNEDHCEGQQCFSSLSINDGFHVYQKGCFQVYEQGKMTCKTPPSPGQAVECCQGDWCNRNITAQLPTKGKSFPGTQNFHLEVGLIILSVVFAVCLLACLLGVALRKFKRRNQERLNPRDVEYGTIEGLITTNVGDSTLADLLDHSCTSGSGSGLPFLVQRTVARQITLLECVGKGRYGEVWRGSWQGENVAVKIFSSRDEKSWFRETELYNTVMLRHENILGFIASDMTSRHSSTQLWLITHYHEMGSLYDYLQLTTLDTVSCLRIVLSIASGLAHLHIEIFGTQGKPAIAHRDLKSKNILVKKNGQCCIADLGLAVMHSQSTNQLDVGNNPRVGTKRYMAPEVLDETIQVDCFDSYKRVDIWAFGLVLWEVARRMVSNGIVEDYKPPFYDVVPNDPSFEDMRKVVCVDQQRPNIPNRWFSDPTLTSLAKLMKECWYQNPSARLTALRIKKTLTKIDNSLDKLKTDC
Source text: as §1

[6] = molecular target: T3, 320 wild-type protein kinases (Homo sapiens, UniProt O14757); conditions: singlicate
T3 sequence (O14757 1-476): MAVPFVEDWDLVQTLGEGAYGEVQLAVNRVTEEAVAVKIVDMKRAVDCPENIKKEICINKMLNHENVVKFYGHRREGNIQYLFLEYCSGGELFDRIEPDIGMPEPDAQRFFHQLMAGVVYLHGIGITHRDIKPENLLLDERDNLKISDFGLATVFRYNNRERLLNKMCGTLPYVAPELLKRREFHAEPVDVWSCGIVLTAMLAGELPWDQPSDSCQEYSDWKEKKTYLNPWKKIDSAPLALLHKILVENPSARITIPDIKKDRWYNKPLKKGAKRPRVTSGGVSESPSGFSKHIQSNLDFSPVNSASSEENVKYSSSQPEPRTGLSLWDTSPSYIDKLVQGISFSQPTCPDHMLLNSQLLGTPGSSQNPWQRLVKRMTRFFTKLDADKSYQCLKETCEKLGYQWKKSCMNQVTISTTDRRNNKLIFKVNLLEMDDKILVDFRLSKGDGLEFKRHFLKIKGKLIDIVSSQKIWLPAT
Source text: as §1

Chain of 320 wild-type protein kinases (Homo sapiens, UniProt Q86Z02) (Q86Z02 whole entry): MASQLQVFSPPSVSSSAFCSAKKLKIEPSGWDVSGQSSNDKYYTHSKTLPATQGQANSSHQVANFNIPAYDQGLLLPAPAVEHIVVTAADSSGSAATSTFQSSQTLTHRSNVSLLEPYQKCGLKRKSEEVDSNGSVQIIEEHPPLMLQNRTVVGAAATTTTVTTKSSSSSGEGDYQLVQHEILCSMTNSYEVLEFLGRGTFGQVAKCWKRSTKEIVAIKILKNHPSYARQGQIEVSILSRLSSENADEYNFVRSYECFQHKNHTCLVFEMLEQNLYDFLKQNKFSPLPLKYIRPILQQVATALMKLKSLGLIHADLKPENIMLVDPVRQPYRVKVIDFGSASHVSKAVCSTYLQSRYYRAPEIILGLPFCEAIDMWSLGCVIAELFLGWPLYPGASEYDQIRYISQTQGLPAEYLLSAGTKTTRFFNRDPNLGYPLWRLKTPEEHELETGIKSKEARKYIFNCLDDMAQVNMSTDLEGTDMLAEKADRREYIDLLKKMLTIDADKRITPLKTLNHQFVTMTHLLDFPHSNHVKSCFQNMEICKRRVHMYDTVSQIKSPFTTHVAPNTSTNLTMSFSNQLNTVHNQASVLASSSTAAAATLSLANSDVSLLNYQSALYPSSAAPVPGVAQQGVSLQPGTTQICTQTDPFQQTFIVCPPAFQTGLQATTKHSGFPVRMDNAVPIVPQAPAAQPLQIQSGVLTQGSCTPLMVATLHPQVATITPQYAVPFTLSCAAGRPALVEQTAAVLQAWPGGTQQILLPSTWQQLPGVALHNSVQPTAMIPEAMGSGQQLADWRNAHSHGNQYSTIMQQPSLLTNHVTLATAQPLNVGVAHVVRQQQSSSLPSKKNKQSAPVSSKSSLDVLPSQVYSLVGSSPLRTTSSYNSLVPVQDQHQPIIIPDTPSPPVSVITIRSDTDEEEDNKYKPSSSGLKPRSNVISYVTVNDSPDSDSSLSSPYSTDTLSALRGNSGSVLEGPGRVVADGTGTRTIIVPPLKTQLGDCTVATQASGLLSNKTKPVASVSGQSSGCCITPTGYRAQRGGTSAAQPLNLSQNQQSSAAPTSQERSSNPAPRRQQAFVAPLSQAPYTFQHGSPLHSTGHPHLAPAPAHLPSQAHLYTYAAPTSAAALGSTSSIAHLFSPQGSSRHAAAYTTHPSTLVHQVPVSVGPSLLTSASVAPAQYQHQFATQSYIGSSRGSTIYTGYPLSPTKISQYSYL
Chain of 320 wild-type protein kinases (Homo sapiens, UniProt Q9UPE1) (Q9UPE1 whole entry): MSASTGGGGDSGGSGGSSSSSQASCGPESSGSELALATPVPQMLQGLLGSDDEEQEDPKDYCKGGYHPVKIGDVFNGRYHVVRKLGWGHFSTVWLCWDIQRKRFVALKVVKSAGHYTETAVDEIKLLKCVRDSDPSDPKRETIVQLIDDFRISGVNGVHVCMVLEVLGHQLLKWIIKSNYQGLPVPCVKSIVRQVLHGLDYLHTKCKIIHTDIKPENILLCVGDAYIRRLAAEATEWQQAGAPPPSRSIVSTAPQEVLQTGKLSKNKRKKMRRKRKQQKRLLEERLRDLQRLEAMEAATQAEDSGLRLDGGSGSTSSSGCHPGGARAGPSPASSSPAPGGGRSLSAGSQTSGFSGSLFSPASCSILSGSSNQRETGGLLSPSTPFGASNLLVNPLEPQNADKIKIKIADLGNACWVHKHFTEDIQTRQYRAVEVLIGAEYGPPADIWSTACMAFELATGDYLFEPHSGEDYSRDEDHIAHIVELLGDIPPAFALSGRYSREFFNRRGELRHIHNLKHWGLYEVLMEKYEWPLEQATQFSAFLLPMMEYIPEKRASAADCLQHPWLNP
Chain of 320 wild-type protein kinases (Homo sapiens, UniProt P50613) (P50613 whole entry): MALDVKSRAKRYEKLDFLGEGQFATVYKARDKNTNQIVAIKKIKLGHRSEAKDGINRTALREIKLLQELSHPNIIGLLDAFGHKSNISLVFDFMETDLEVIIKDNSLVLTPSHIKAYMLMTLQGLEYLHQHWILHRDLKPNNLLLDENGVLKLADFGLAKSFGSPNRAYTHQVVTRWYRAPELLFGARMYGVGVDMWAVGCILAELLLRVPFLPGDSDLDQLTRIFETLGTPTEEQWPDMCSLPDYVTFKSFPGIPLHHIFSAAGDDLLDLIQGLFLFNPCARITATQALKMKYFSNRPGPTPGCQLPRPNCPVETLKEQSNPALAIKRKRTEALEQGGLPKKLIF

| Structure (SMILES) | Residual activity ([1]; CDK7/CycH/MAT1, 1.0E-06 M) | Residual activity ([1]; CDK7/CycH/MAT1, 1.0E-07 M) | Residual activity, STK23 ([2]; assay conc. 1.0E-06 M) | Residual activity, STK23 ([2]; assay conc. 1.0E-07 M) | Residual activity ([3]; HIPK1, 1.0E-06 M) | Residual activity ([3]; HIPK1, 1.0E-07 M) | Residual activity, TAOK2 ([4]; assay conc. 1.0E-06 M) | Residual activity, TAOK2 ([4]; assay conc. 1.0E-07 M) | Residual activity ([5]; ACV-R1, 1.0E-06 M) | Residual activity ([5]; ACV-R1, 1.0E-07 M) | Residual activity ([6]; CHK1, 1.0E-06 M) | Residual activity ([6]; CHK1, 1.0E-07 M) |
| --- | --- | --- | --- | --- | --- | --- | --- | --- | --- | --- | --- | --- |
| C#Cc1cc(Nc2ncnc3cc(I)ccc23)ccc1Cl [Compound 41] | 81 % of control | 93 % of control | 94 % of control | 93 % of control | 87 % of control | 98 % of control | 96 % of control | 110 % of control | 86 % of control | 91 % of control | 85 % of control | 94 % of control |
| C#Cc1cc(Nc2ncnc3cc(OC)c(OC)cc23)ccc1Cl [Compound 45] | 79 % of control | 74 % of control | 87 % of control | 97 % of control | 80 % of control | 79 % of control | 106 % of control | 109 % of control | 93 % of control | 98 % of control | 74 % of control | 94 % of control |

Reference: publication PMC9329436, “Optimization of the 4-anilinoquin(az)oline scaffold as epidermal growth factor receptor (EGFR) inhibitors for chordoma utilizing a toxicology profiling assay platform” (Scientific Reports, 2022)
